Laboratory results published in patent US6864247B2, “Therapeutic agents for glomerulosclerosis” (priority 1999, dated 2005).

Key:
type I collagen (ColI) = assay: Immunohistological examination of type I collagen expression in the mesangium, anti-Thy 1 nephritis rat; format: in vivo; settings: 0.4 μg/kg intravenously every two days; day 7; immunohistochemistry
Experimental: (§1) An anti-Thy 1 antibody (OX-7 purchased from CEDARLANE, Ontario, Canada) was administered into the tail vein of 6-week-old male Wistar rats at 1 mg/kg to induce anti-Thy 1 nephritis. Next day after OX-7 administration, 22-oxa-1α,25-dihydroxyvitamin D3 was intravenously administered at 0.4 μg/kg every two days, and on day 7 after administration, serum, urine and renal tissue were collected.
(§2) For comparison, 1α,25-dihydroxyvitamin D3 was administered in the same manner instead of 22-oxa-1α,25-dihydroxyvitamin D3. Rats not treated with the anti-Thy 1 antibody were used as normal controls. Rats treated with the anti-Thy 1 antibody alone without any vitamin D derivative were used as disease controls.
(§3) In the renal tissue, the expression of type I collagen (ColI) and type IV collagen (ColIV) in the mesangium was immunohistologically examined (FIGS. 4-11). Staining was performed on 4 μm sections using an ABC Elite peroxidase staining kit (Vector Lab., Burlingame, Calif., U.S.A.) according to the manufacturer's instructions. The primary antibodies used were a guinea pig anti-rat type I collagen antibody (Boehringer Ingelheim, Co., Ltd., Ingelheim, Germany) and a rabbit anti-rat type IV collagen antibody (Boehringer Ingelheim, Co., Ltd., Ingelheim, Germany).

[1] = system: rat model of anti-Thy 1 antibody-induced nephritis; assay: Urinary albumin by ELISA in anti-Thy 1 nephritis rat; format: in vivo; settings: 0.4 μg/kg intravenously every two days; day 7; FIG. 13
Experimental: as §1, §2
In addition, serum calcium (Ca) was determined with an autoanalyzer (AUTOANALYZER, HITACHI 7170, Tokyo, Japan) and urinary albumin (uALB) was determined with an ELISA kit NEPHRAT II (EXOCELL, INC) (FIGS. 12 and 13).

[2] = described in Japanese Patent No. 2854600; cited from earlier work
[3] = literature report; cited from earlier work
type IV collagen (ColIV) = assay: Immunohistological examination of type IV collagen expression in the mesangium, anti-Thy 1 nephritis rat; format: in vivo; settings: 0.4 μg/kg intravenously every two days; day 7; immunohistochemistry
Experimental: as §1, §2, §3

[4] = system: rat model of anti-Thy 1 antibody-induced nephritis; assay: Renal histology (glomerular cell count, glomerulosclerosis index, glomerular volume) in rat model of anti-Thy 1 antibody-induced nephritis; format: in vivo; settings: 0.4 μg/kg intravenously every two days from the day after OX-7, day 7; for glomerular cell count: FIG. 1; for glomerular volume: FIG. 3; for glomerulosclerosis index: PAM stained samples, FIG. 2
Text: The pharmacological effect of 22-oxa-1α,25-dihydroxyvitamin D3 used as an active ingredient in the present invention can be evaluated on a rat model of a anti-Thy 1 antibody-induced nephritis characterized by showing increased mesangial cell proliferation and mesangial matrix production after administration of an anti-Thy 1 antibody. The pharmacological effect of test compounds can be evaluated by administering an anti-Thy 1 antibody to such a rat model followed by the test compounds, collecting renal tissue at an appropriate time and determining the glomerular cell count or glomerulosclerosis index or determining the expression of collagen by a standard method such as an immunohistochemical technique.
as §1, §2
In the renal tissue, the glomerular cell count, glomerulosclerosis index and glomerular volume were determined (FIGS. 1, 2 and 3). The “glomerular cell count” was determined by counting every cell in every measurable glomerulus on hematoxylin-eosin stained samples. The “glomerulosclerosis index” was evaluated on PAM (periodic acid-methenamine-silver) stained samples according to the method of Raji et al. The “glomerular volume” was determined by using NIH image to calculate the volume of glomeruli read by an image analyzer.

human mesangial cells = settings: literature report; cited from earlier work

C=C1/C(=C\C=C2/CCC[C@]3(C)[C@@H]([C@H](C)OCCC(C)(C)O)CC[C@@H]23)C[C@@H](O)C[C@@H]1O [22-oxa-1α,25-dihydroxyvitamin D3, 1α,3β-dihydroxy-20α-(3-hydroxy-3-methylbutyloxy)-9,10-seco-5,7,10 (19)-pregnatriene]
expression of ColI in the mesangium (type I collagen (ColI)): clearly inhibited | uALB levels (urinary albumin) [1]: significantly suppressed | urinary protein excretion [2]: inhibits | differentiation-inducing effect [3]: show a differentiation-inducing effect | hypercalcemia [3]: without causing hypercalcemia | expression of ColIV in the mesangium (type IV collagen (ColIV)): clearly inhibited | glomerular cell count [4]: significantly suppressed | glomerular volume [4]: no effect | glomerulosclerosis index [4]: significantly suppressed

C=C1/C(=C\C=C2/CCC[C@]3(C)[C@@H]([C@H](C)CCCC(C)(C)O)CC[C@@H]23)C[C@@H](O)C[C@@H]1O [1α,25-dihydroxyvitamin D3, reference compound]
expression of ColI in the mesangium (type I collagen (ColI)): clearly inhibited | uALB levels (urinary albumin) [1]: significantly suppressed | antiproliferative effect on human mesangial cells (human mesangial cells): antiproliferative effect | expression of ColIV in the mesangium (type IV collagen (ColIV)): clearly inhibited | glomerular cell count [4]: significantly suppressed | glomerular volume [4]: no effect | glomerulosclerosis index [4]: significantly suppressed
